Experimental data: US20010047099A1, “4-aminopicolinates and their use as herbicides” (priority 2000, published 2001)
One block for each compound: values may come before it.

Legend:
[1] = tested on: broadleaf dock (Rumex obtusifolia); experiment: Range & Pasture Crop Testing (postemergence track sprayer); format: in vivo; details: Table 9; rate 70 g/Ha; 3 weeks after treatment
Protocol: (§1) Rates are calculated based upon 5 doses being applied. The high rate (X), followed by serial dilutions of 1/2×, 1/4×, 1/8× and 1/16×. Compound requirements are based upon the 187 L/ha carrier volume, specifications of the delivery system (Mandel track sprayer) and generating 24 mL of technical spray material to allow for the dilutions and overage in the sprayer. [formula]
(§2) All technical materials were formulated in 97:3 (acetone:DMSO) with 0.25% X-77. The total volume of solvent is maintained at less than 7%. An overhead Mandel track sprayer calibrated to deliver 187 L/ha was used for all treatment applications (postemergence). Picloram was included as a comparison treatment.
(§3) Solutions were applied with a mechanized track-sprayer at the following settings:
(§4) Spray height: 17 inches above top of plants
(§5) This provides an application volume of 187 L/ha.
(§6) Percent weed control (burn down) was evaluated 3 weeks after treatment. Visual control on a 0-100 linear scale was used, with 0 representing no control and 100 representing total control. Burn down ratings were taken for annual and perennial weed species.

[2] = tested on: crested wheatgrass (Agropyron cristatum) (grass crop); experiment: as above; format: in vivo; details: Table 9, rate 70 g/Ha, 3 weeks after treatment
Protocol: as §1, §2, §3, §4, §5, §6

[3] = tested on: common ragweed (Ambrosia artemisiifolia); experiment: as above; format: in vivo; details: Table 9; rate 70 g/Ha; 3 week evaluation
Protocol: as §1, §2, §3, §4, §5, §6

[4] = tested on: morningglory (Ipomoea hederacea); experiment: Preemergence herbicidal activity; format: in vivo; details: Table 6 (headed Post-emergent; text: preemergence), after 3 weeks
Outline: (§7)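 Pre-emergence soil spray; loam:sand 70:30, pH ~8.1. Vehicle: acetone/DMSO 97:3 stock diluted in water + 0.1% Tween 155; controls sprayed with aqueous mixture. Greenhouse 23-29° C day/22-28° C night, 15 hr photoperiod. Visual % injury vs untreated at 3 wk.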

[5] = tested on: velvetleaf (Abutilon theophrasti); experiment: Preemergence herbicidal activity; format: in vivo; details: Table 6 (headed Post-emergent; text: preemergence), after 3 weeks
Outline: as §7

[6] = tested on: pigweed (Amaranthus retroflexus); experiment: Preemergence herbicidal activity; format: in vivo; details: Table 6 (headed Post-emergent; text: preemergence), after 3 weeks
Outline: as §7

[7] = tested on: wheat (Triticum aestivum); experiment: Postemergence herbicidal activity, selectivity to wheat; format: in vivo; details: Table 5; crop (wheat); rate 125 ppm
Protocol: Seeds of the desired test plant species were planted in Grace-Sierra MetroMix® 306 planting mixture, which typically has a pH of 6.0 to 6.8 and an organic matter content of about 30 percent, in plastic pots with a surface area of 64 square centimeters. When required to ensure good germination and healthy plants, a fungicide treatment and/or other chemical or physical treatment was applied. The plants were grown for 7-21 days in a greenhouse with an approximate 15 hr photoperiod which was maintained at about 23-29° C. during the day and 22-28° C. during the night. Nutrients and water were added on a regular basis and supplemental lighting was provided with overhead metal halide 1000-Watt lamps as necessary. The plants were employed for testing when they reached the first or second true leaf stage.
A weighed amount, determined by the highest rate to be tested, of each test compound was placed in a 20 mL glass vial and was dissolved in 4 mL of a 97:3 v/v (volume/volume) mixture of acetone and dimethyl sulfoxide (DMSO) to obtain concentrated stock solutions. […] The concentrated stock solutions obtained were diluted with an aqueous mixture containing acetone, water, isopropyl alcohol, DMSO, Atplus 411F crop oil concentrate, and Triton X-155 surfactant in a 48.5:39:10:1.5:1.0:0.02 v/v ratio to obtain spray solutions of known concentration. The solutions containing the highest concentration to be tested were prepared by diluting 2 mL aliquots of the stock solution with 13 mL of the mixture and lower concentrations were prepared by serial dilution of the stock solution. Approximately 1.5 mL aliquots of each solution of known concentration were sprayed evenly onto each of the test plant pots using a DeVilbiss atomizer driven by compressed air pressure of 2 to 4 psi ([…]) to obtain thorough coverage of each plant. Control plants were sprayed in the same manner with the aqueous mixture. In this test an application rate of 1 ppm results in the application of approximately 1 g/Ha.
The treated plants and control plants were placed in a greenhouse as described above and watered by sub-irrigation to prevent wash-off of the test compounds. After 2 weeks the condition of the test plants as compared with that of the untreated plants was determined visually and scored on a scale of 0 to 100 percent where 0 corresponds to no injury and 100 corresponds to complete kill.

[8] = tested on: Canada thistle (Cirsium arvense); experiment: Range & Pasture Crop Testing (postemergence track sprayer); format: in vivo; details: for Post-emergent Evaluation - % control CIRAR: Table 9, rate 70 g/Ha, 3 weeks after treatment
Protocol: (§8) By applying the well-accepted probit analysis as described by J. Berkson in Journal of the […], 48, 565 (1953) and by D. Finney in “Probit Analysis” Cambridge University Press (1952), the above data can be used to calculate GR50 and GR80 values, which are defined as growth reduction factors that correspond to the effective dose of herbicide required to kill or control 50 percent or 80 percent, respectively, of a target plant.
as §1, §2, §3, §4, §5, §6

[9] = tested on: lambsquarters (Chenopodium album); experiment: Postemergence herbicidal activity; format: in vivo; details: Table 5; rate 125 ppm
Outline: (§9)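 Foliar spray at 1st–2nd true leaf; 1 ppm ≈ 1 g/Ha. Carrier: acetone/water/IPA/DMSO plus crop oil concentrate and Triton X-155. Greenhouse, sub-irrigated. Visual rating vs untreated at 2 wk, 0 = no injury, 100 = complete kill.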

[10] = tested on: wild buckwheat (Polygonum convolvulus); experiment: Postemergence herbicidal activity; format: in vivo; details: rate 125 ppm
Outline: as §9

[11] = tested on: cocklebur (Xanthium strumarium); experiment: Postemergence herbicidal activity; format: in vivo; details: Table 1, rate 125 ppm, visual, after 2 weeks
Outline: as §9

[12] = tested on: chickweed (Stellaria media); experiment: Postemergence herbicidal activity; format: in vivo; details: rate 125 ppm
Outline: as §9

[13] = tested on: field bindweed (Convolvulus arvensis); experiment: Range & Pasture Crop Testing (postemergence track sprayer); format: in vivo
Protocol: as §8, §1, §2, §3, §4, §5, §6

[14] = tested on: White Clover (Trifolium repens); experiment: as above; format: in vivo; details: Table 10
Protocol: as §8, §1, §2, §3, §4, §5, §6

[15] = tested on: sicklepod (Cassia obtusifolia); experiment: as above; format: in vivo; details: Table 8; salts of Compound 1; dose for 80 percent control
Protocol: as §8, §1, §2, §3, §4, §5, §6

[16] = Table 10, clover pasture, postemergence

Compound: 4-Amino-3,6-dichloro-5-methylthiopyridine-2-carboxylic acid [Compound 23]
Post-emergent Evaluation - % control RUMOB [1]: 100% | Post-emergent Evaluation - % control AGRCR [2]: 30% | Post-emergent Evaluation - % control AMBEL [3]: 85% | % Control IPOHE ([4]; rate 560 ppm): 0% | % Control ABUTH ([5]; rate 560 ppm): 40% | % Control AMARE ([6]; rate 560 ppm): 40% | Post-emergent Evaluation - % control TRZAS [7]: 20% | Post-emergent Evaluation - % control CIRAR [8]: 80% | Post-emergent Evaluation - % control CHEAL [9]: 90% | Post-emergent % Control POLCO ([10]; Table 1, visual, after 2 weeks): 98% | Post-emergent Evaluation - % control POLCO ([10]; Table 5): 98% | Post-emergent % Control XANST [11]: 90% | Post-emergent % Control STEME ([12]; Table 1, visual, after 2 weeks): 90% | Post-emergent Evaluation - % control STEME ([12]; Table 5): 30%

melting point: 114 to 115 °C
Compound: CC(C)OC(=O)c1nc(Cl)cc(N)c1Cl [Compound 6, i-propyl 4-amino-3,6-dichloropyridine-2-carboxylate]
Post-emergent Evaluation - % control RUMOB [1]: 100% | Post-emergent Evaluation - % control AGRCR [2]: 30% | Post-emergent Evaluation - % control AMBEL [3]: 93% | pest or weed control at 280 ppm ([4]; Ipomoea, 504 h, rate 280 ppm, read-out: % Control IPOHE): 100% | pest or weed control at 280 ppm ([5]; Abutilon theophrasti, 504 h, rate 280 ppm, read-out: % Control ABUTH): 100% | pest or weed control at 280 ppm ([6]; Amaranthus retroflexus, 504 h, rate 280 ppm, read-out: % Control AMARE): 100% | GR80 CONAR [13, 16]: 98.8 g/ha | GR20 TRFRE [14]: 98.8 g/ha | Post-emergent Evaluation - % control CIRAR [8]: 95% | GR80 CIRAR [8, 16]: <17.5 g/ha | pest or weed control at 125 ppm ([10]; Fallopia convolvulus, post-emergence, 336 h, Table 1, visual, after 2 weeks, read-out: Post-emergent % Control POLCO): 100% | pest or weed control at 125 ppm ([11]; Xanthium strumarium, post-emergence, 336 h, read-out: Post-emergent % Control XANST): 100% | pest or weed control at 125 ppm ([12]; Stellaria media, post-emergence, 336 h, Table 1, visual, after 2 weeks, read-out: Post-emergent % Control STEME): 100%

Compound: Nc1cc(Cl)nc(C(=O)[O-])c1Cl.[K+] [potassium salt]
Post-emergent GR80 CONAR ([13]; Table 8, salts of Compound 1, dose for 80 percent control): 36 g/Ha | Post-emergent GR80 CASOB [15]: <8.8 g/Ha | Post-emergent GR80 CIRAR ([8]; Table 8, salts of Compound 1, 3 week evaluation): 27 g/Ha
